≈ marks a conversion by molar mass, not a printed value. Where two headings read alike, the source gives them in different places.
Key:
MDRAB [1] = test: MIC determination, microdilution broth method; assay type: cell-based, Acinetobacter baumannii
Method: Determination methods of a Minimal Inhibitory Concentration (MIC) and a Minimum Bactericidal Concentration (MBC) of a test product: the MIC and the MBC of the Pithecellobium clypearia Benth water or ethanol extract to the MDRAB are determined by a microdilution broth method. And it is operated by referring to the microdilution broth method recommended by National Committee for Clinical Laboratory Standards (NCCLS).

MDRAB [2] = test: Checkerboard assay (combined-use MIC, FIC); assay type: cell-based, Acinetobacter baumannii; conditions: for FIC, all strains / MIC50 of the antibiotic after combined use / reduction of the antibiotic's MIC50 vs single use / reduction of the antibiotic's MIC90 vs single use / share of strains with FIC ≤ 0.5: 20 MDRABs; for MIC: Acinetobacter baumannii, read-out: single-use MIC
Method: Test methods of the sensibilization effects of the test product to similar antibiotics: it is operated by referring to a checkerboard assay recommended by NCCLS.
The checkerboard assay is performed in a 96-pore sterile culture plate.
Calculation of a Fractional Inhibitory Concentration (FIC): FIC=S20b combined-use MIC/S20b single-use MIC+antibiotic combined-use MIC/antibiotic single-use MIC. By calculating the FIC, the combined antibacterial interaction between the EA and the antibiotic is evaluated, with synergistic effect for FIC≤0.5, additive effect for 0.5<FIC≤1, indifferent effect for 1<FIC≤2 and antagonistic effect for FIC>2. According to a sterile growth pore, the optimum concentration ratio between the EA and the antibiotic is founded out. At last, the effect of the EA to strengthen the efficacy of the antibiotic is evaluated.

ATCC27853 = test: MIC determination, control strain; assay type: cell-based; conditions: read-out: MIC
Method: Determination methods of a Minimal Inhibitory Concentration (MIC) and a Minimum Bactericidal Concentration (MBC) of a test product: the MIC and the MBC of the Pithecellobium clypearia Benth water or ethanol extract to the MDRAB are determined by a microdilution broth method.

[3] = antibiotic with 60% ethanol extract
[4] = antibiotic with 95% ethanol extract
[5] = antibiotic with EA (10% ethanol extract)
[6] = antibiotic with EA (water extract)

CN(C)[C@@H]1C(O)=C(C(N)=O)C(=O)[C@@]2(O)C(O)=C3C(=O)c4c(O)cccc4[C@@](C)(O)[C@H]3C[C@@H]12 [TE, Tetracycline]
MIC (MDRAB [1]; Acinetobacter baumannii, strain A4, EA=60% ethanol extract, read-out: MIC): 8 mg/L (≈ 18 µM) | MIC (MDRAB [1]; Acinetobacter baumannii, strain A4, EA=95% ethanol extract, read-out: MIC): 8 mg/L (≈ 18 µM) | MIC (MDRAB [1]; Acinetobacter baumannii, strain A4, single use, EA=10% ethanol extract, read-out: MIC): 8 mg/L (≈ 18 µM) | MIC (MDRAB [1]; Acinetobacter baumannii, strain A4, single use, EA=water extract, read-out: MIC): 8 mg/L (≈ 18 µM) | MIC (MDRAB [1]; Acinetobacter baumannii, strain A5, EA=60% ethanol extract, read-out: MIC): 32 mg/L (≈ 72 µM) | MIC (MDRAB [1]; Acinetobacter baumannii, strain A5, EA=95% ethanol extract, read-out: MIC): 32 mg/L (≈ 72 µM) | MIC (MDRAB [1]; Acinetobacter baumannii, strain A5, single use, EA=10% ethanol extract, read-out: MIC): 32 mg/L (≈ 72 µM) | MIC (MDRAB [1]; Acinetobacter baumannii, strain A5, single use, EA=water extract, read-out: MIC): 32 mg/L (≈ 72 µM) | MIC (MDRAB [1]; strain A15, single use, EA=10% ethanol extract): 1024 mg/L (≈ 2300 µM) | MIC (MDRAB [1]; strain A15, single use, EA=water extract): 1024 mg/L (≈ 2300 µM) | FIC, all strains (MDRAB [2]; [3]): ≤ 1 | MIC50 of the antibiotic after combined use (MDRAB [2]; [3]): 32 mg/L | reduction of the antibiotic's MIC50 vs single use (MDRAB [2]; [3]): 87.5% | reduction of the antibiotic's MIC90 vs single use (MDRAB [2]; [3]): 75% | share of strains with FIC ≤ 0.5 (MDRAB [2]; [3]): 50% | FIC, all strains (MDRAB [2]; [4]): ≤ 1 | MIC50 of the antibiotic after combined use (MDRAB [2]; [4]): 32 mg/L | reduction of the antibiotic's MIC50 vs single use (MDRAB [2]; [4]): 87.5% | reduction of the antibiotic's MIC90 vs single use (MDRAB [2]; [4]): 75% | share of strains with FIC ≤ 0.5 (MDRAB [2]; [4]): 35% | FIC, all strains (MDRAB [2]; [5]): ≤ 1 | MIC50 of the antibiotic after combined use (MDRAB [2]; [5]): 64 mg/L | reduction of the antibiotic's MIC50 vs single use (MDRAB [2]; [5]): 75% | reduction of the antibiotic's MIC90 vs single use (MDRAB [2]; [5]): 50% | share of strains with FIC ≤ 0.5 (MDRAB [2]; [5]): 45% | FIC, all strains (MDRAB [2]; [6]): ≤ 1 | MIC50 of the antibiotic after combined use (MDRAB [2]; [6]): 64 mg/L | reduction of the antibiotic's MIC50 vs single use (MDRAB [2]; [6]): 75% | reduction of the antibiotic's MIC90 vs single use (MDRAB [2]; [6]): 75% | share of strains with FIC ≤ 0.5 (MDRAB [2]; [6]): 35% | MIC (MDRAB [2]; strain A4, EA=60% ethanol extract): 8 mg/L | MIC (MDRAB [2]; strain A4, EA=95% ethanol extract): 8 mg/L | MIC (MDRAB [2]; strain A5 (printed AS in tables A43, A45), EA=95% ethanol extract): 32 mg/L | MIC (MDRAB [2]; strain A5, EA=60% ethanol extract): 32 mg/L | MIC (MDRAB [2]; strain A15, EA=60% ethanol extract): 1020 mg/L | MIC (MDRAB [2]; strain A15, EA=95% ethanol extract): 1020 mg/L | combined-use MIC (MDRAB [2]; strain A1, EA (10% ethanol extract) with TE): 1 mg/L | combined-use MIC (MDRAB [2]; strain A1, EA (60% ethanol extract) + TE combined): 1 mg/L | combined-use MIC (MDRAB [2]; strain A1, EA (95% ethanol extract) + TE combined): 1 mg/L | combined-use MIC (MDRAB [2]; strain A1, EA (water extract) with TE): 1 mg/L | combined-use MIC (MDRAB [2]; strain A2, EA (10% ethanol extract) with TE): 64 mg/L | combined-use MIC (MDRAB [2]; strain A2, EA (60% ethanol extract) + TE combined): 64 mg/L | combined-use MIC (MDRAB [2]; strain A2, EA (95% ethanol extract) + TE combined): 64 mg/L | combined-use MIC (MDRAB [2]; strain A3, EA (10% ethanol extract) with TE): 64 mg/L | combined-use MIC (MDRAB [2]; strain A3, EA (60% ethanol extract) + TE combined): 32 mg/L | combined-use MIC (MDRAB [2]; strain A3, EA (95% ethanol extract) + TE combined): 32 mg/L | combined-use MIC (MDRAB [2]; strain A3, EA (water extract) with TE): 64 mg/L | combined-use MIC (MDRAB [2]; strain A4, EA (10% ethanol extract) with TE): 2 mg/L | combined-use MIC (MDRAB [2]; strain A4, EA (60% ethanol extract) + TE combined): 1 mg/L | combined-use MIC (MDRAB [2]; strain A4, EA (95% ethanol extract) + TE combined): 1 mg/L | combined-use MIC (MDRAB [2]; strain A4, EA (water extract) with TE): 2 mg/L | combined-use MIC (MDRAB [2]; strain A5, EA (10% ethanol extract) with TE): 4 mg/L | combined-use MIC (MDRAB [2]; strain A5, EA (60% ethanol extract) + TE combined): 8 mg/L | combined-use MIC (MDRAB [2]; strain A5, EA (95% ethanol extract) + TE combined): 8 mg/L | combined-use MIC (MDRAB [2]; strain A5, EA (water extract) with TE): 4 mg/L | combined-use MIC (MDRAB [2]; strain A6, EA (10% ethanol extract) with TE): 64 mg/L | combined-use MIC (MDRAB [2]; strain A6, EA (water extract) with TE): 64 mg/L | combined-use MIC (MDRAB [2]; strain A8, EA (10% ethanol extract) with TE): 64 mg/L | combined-use MIC (MDRAB [2]; strain A8, EA (60% ethanol extract) + TE combined): 32 mg/L | combined-use MIC (MDRAB [2]; strain A8, EA (95% ethanol extract) + TE combined): 32 mg/L | combined-use MIC (MDRAB [2]; strain A9, EA (10% ethanol extract) with TE): 32 mg/L | combined-use MIC (MDRAB [2]; strain A9, EA (60% ethanol extract) + TE combined): 32 mg/L | combined-use MIC (MDRAB [2]; strain A9, EA (95% ethanol extract) + TE combined): 32 mg/L | combined-use MIC (MDRAB [2]; strain A9, EA (water extract) with TE): 64 mg/L | combined-use MIC (MDRAB [2]; strain A10, EA (10% ethanol extract) with TE): 32 mg/L | combined-use MIC (MDRAB [2]; strain A10, EA (60% ethanol extract) + TE combined): 32 mg/L | combined-use MIC (MDRAB [2]; strain A10, EA (95% ethanol extract) + TE combined): 32 mg/L | combined-use MIC (MDRAB [2]; strain A10, EA (water extract) with TE): 64 mg/L | combined-use MIC (MDRAB [2]; strain A11, EA (10% ethanol extract) with TE): 64 mg/L | combined-use MIC (MDRAB [2]; strain A11, EA (60% ethanol extract) + TE combined): 32 mg/L | combined-use MIC (MDRAB [2]; strain A11, EA (95% ethanol extract) + TE combined): 32 mg/L | combined-use MIC (MDRAB [2]; strain A11, EA (water extract) with TE): 64 mg/L | combined-use MIC (MDRAB [2]; strain A14, EA (60% ethanol extract) + TE combined): 32 mg/L | combined-use MIC (MDRAB [2]; strain A14, EA (95% ethanol extract) + TE combined): 32 mg/L | combined-use MIC (MDRAB [2]; strain A14, EA (water extract) with TE): 32 mg/L | combined-use MIC (MDRAB [2]; strain A15, EA (60% ethanol extract) + TE combined): 64 mg/L | combined-use MIC (MDRAB [2]; strain A15, EA (95% ethanol extract) + TE combined): 64 mg/L | combined-use MIC (MDRAB [2]; strain A15, EA (water extract) with TE): 64 mg/L | combined-use MIC (MDRAB [2]; strain A16, EA (water extract) with TE): 64 mg/L | combined-use MIC (MDRAB [2]; strain A17, EA (10% ethanol extract) with TE): 64 mg/L | combined-use MIC (MDRAB [2]; strain A18, EA (60% ethanol extract) + TE combined): 64 mg/L | combined-use MIC (MDRAB [2]; strain A19, EA (water extract) with TE): 64 mg/L | combined-use MIC (MDRAB [2]; strain A20, EA (60% ethanol extract) + TE combined): 32 mg/L | combined-use MIC (MDRAB [2]; strain A20, EA (95% ethanol extract) + TE combined): 32 mg/L | combined-use MIC (MDRAB [2]; strain A20, EA (water extract) with TE): 64 mg/L | MIC (ATCC27853; EA=10% ethanol extract): 8 mg/L (≈ 18 µM) | MIC (ATCC27853; EA=60% ethanol extract): 8 mg/L (≈ 18 µM) | MIC (ATCC27853; EA=95% ethanol extract): 8 mg/L (≈ 18 µM) | MIC (ATCC27853; EA=water extract): 8 mg/L (≈ 18 µM)
